Results from patent US20260232767A1, “INTERLEUKIN-23 RECEPTOR ANTAGONIST PEPTIDES FOR USE IN THE TREATMENT OF PSORIASIS” (Janssen Pharmaceutica NV, priority 2023, published 2026).

System: subjects with moderate-to-severe plaque psoriasis
Experiment: PASI response, Example 1 16-week dose-ranging study
Format: in vivo, human
Conditions: for Subjects achieving PASI 75: Week 4
Description: The Psoriasis Area and Severity Index (PASI) is a system used for assessing and grading the severity of psoriatic lesions and their response to therapy. In the PASI system, the body is divided into four regions: the head, trunk, upper extremities, and lower extremities. Each of these areas is assessed and scored separately for erythema, induration, and scaling, which are each rated on a scale of 0 to 4 and extent of involvement on a scale of 0 to 6. The PASI produces a numeric score (a “PASI score”) that can range from 0 to 72. A higher score indicates more severe disease.
This was a randomized, double-blind, placebo-controlled, dose-ranging, parallel group, multicenter, interventional study in subjects with moderate-to-severe plaque psoriasis. A target of 240 subjects were enrolled in this study with 40 subjects planned per intervention group.
Clinician-reported outcomes including Psoriasis Area and Severity Index (PASI), Body Surface Area (BSA), Investigator's Global Assessment (IGA), Nail Psoriasis Area and Severity Index (NAPSI), Fingernail Physician's Global Assessment (f-PGA), Static Physician's Global Assessment of Genitalia (s-PGA-G), Physician's Global Assessment of Hands and/or Feet (hf-PGA), and Scalp Specific Investigator Global Assessment (ss-IGA) were obtained at Week 0, 8, and 16. PASI and IGA were also obtained at Weeks 1, 2, 4, and 12, and at Week 20, four weeks after the administration of the tablets has stopped.
The primary efficacy endpoint was the proportion of participants achieving a PASI 75 response at Week 16, defined as at least a 75% reduction from baseline in PASI total score.
For the primary analysis, composite strategy (non-responder imputation) was applied to address intercurrent event #1 (Discontinuation of study intervention due to lack of efficacy or due to an AE of worsening of psoriasis) and #2 (initiation of a protocol-prohibited medication or therapy that could improve psoriasis); and treatment policy strategy (observed data) was applied to intercurrent event #3 (Discontinuation of study intervention due to other reasons). Participants with missing data after application of ICEs are also considered as non-responders.
In addition to the response analysis, pairwise comparisons of each treatment group versus the placebo group were performed for the primary endpoint of PASI 75 at Week 16. Pairwise comparisons were not adjusted for multiplicity. The Cochran-Mantel-Haenszel chi-square statistic stratified by baseline weight category (≤90 kg, >90 kg) at a 2-sided significance level of 0.05 was used (Table 2).

[1] = 25 mg QD, Week 16, trough plasma conc ≥Q3
[2] = 50 mg QD, Week 16, peak plasma conc. <Q1, N=2
[3] = 50 mg QD, Week 16, peak plasma conc. Q1 to <Q2, N=2
[4] = 50 mg QD, Week 16, peak plasma conc. Q2 to <Q3, N=2
[5] = 50 mg QD, Week 16, peak plasma conc. ≥Q3, N=2
[6] = 50 mg QD, Week 16, trough plasma conc <Q1
[7] = 50 mg QD, Week 16, trough plasma conc Q1 to <Q2
[8] = 50 mg QD, Week 16, trough plasma conc Q2 to <Q3
[9] = 50 mg QD, Week 16, trough plasma conc ≥Q3
[10] = 100 mg BID, Week 16, peak plasma conc. <Q1, N=2
[11] = 100 mg BID, Week 16, peak plasma conc. Q1 to <Q2, N=3
[12] = 100 mg BID, Week 16, peak plasma conc. Q2 to <Q3, N=2
[13] = 100 mg BID, Week 16, peak plasma conc. ≥Q3, N=3
[14] = 100 mg BID, Week 16, trough plasma conc <Q1

SMILES: CC(=O)NCCCC[C@@H]1NC(=O)[C@H](Cc2c[nH]c3c(C)cccc23)NC(=O)[C@H]([C@@H](C)O)NC(=O)[C@H](CC(N)=O)NC(=O)[C@@H](NC(C)=O)C(C)(C)SSC(C)(C)[C@@H](C(=O)N[C@@H](Cc2ccc(OCCN)cc2)C(=O)N[C@@H](Cc2ccc3ccccc3c2)C(=O)NC2(C(=O)N[C@@H](CCC(=O)O)C(=O)N[C@@H](CC(N)=O)C(=O)N[C@@H](Cc3cccnc3)C(=O)N(C)CC(N)=O)CCOCC2)NC1=O [IL-23 receptor antagonist peptide, Ac-[Pen]*-N-T-[W(7-Me)]-[Lys(Ac)]-[Pen]*-Phe[4-(2-aminoethoxy)]-[2-Nal]-[THP]-E-N-[3-Pal]-Sarc-NH2 (*[Pen]-[Pen]* formdisulfidebond)]
- PASI 100% Improvement, subjects [1]: 1 (16.7%)
- PASI ≥75% Improvement, subjects [1]: 3 (50.0%)
- PASI ≥90% Improvement, subjects [1]: 1 (16.7%)
- Subjects achieving PASI 75 (50 mg QD): 16.3%
- PASI 75 treatment difference vs placebo (50 mg QD, Week 16): 48.8%
- PASI 90 treatment difference vs placebo (50 mg QD, Week 16): 48.8% (33.3%,
- PASI 100 treatment difference vs placebo (50 mg QD, Week 16): 25.6% (12.7%,
- Subjects achieving PASI 90 (50 mg QD, Week 16): 22 (51.2%)
- Subjects achieving PASI 100 (50 mg QD, Week 16): 11 (25.6%)
- PASI 75, % (50 mg QD, Week 16, N=43): 58.1%
- PASI 90, % (50 mg QD, Week 16, N=43): 51.2%
- PASI 100, % (50 mg QD, Week 16, N=43): 25.6%
- PASI 100% Improvement, n subjects [2]: 0
- PASI ≥75% Improvement, % subjects [2]: (50.0%)
- PASI ≥75% Improvement, n subjects [2]: 1
- PASI ≥90% Improvement, n subjects [2]: 0
- PASI 100% Improvement, % subjects [3]: (50.0%)
- PASI 100% Improvement, n subjects [3]: 1
- PASI ≥75% Improvement, % subjects [3]: (100.0%)
- PASI ≥75% Improvement, n subjects [3]: 2
- PASI ≥90% Improvement, % subjects [3]: (100.0%)
- PASI ≥90% Improvement, n subjects [3]: 2
- PASI 100% Improvement, n subjects [4]: 0
- PASI ≥75% Improvement, % subjects [4]: (50.0%)
- PASI ≥75% Improvement, n subjects [4]: 1
- PASI ≥90% Improvement, % subjects [4]: (50.0%)
- PASI ≥90% Improvement, n subjects [4]: 1
- PASI 100% Improvement, n subjects [5]: 0
- PASI ≥75% Improvement, % subjects [5]: (100.0%)
- PASI ≥75% Improvement, n subjects [5]: 2
- PASI ≥90% Improvement, % subjects [5]: (100.0%)
- PASI ≥90% Improvement, n subjects [5]: 2
- PASI 100% Improvement, subjects [6]: 1 (20.0%)
- PASI ≥75% Improvement, subjects [6]: 2 (40.0%)
- PASI ≥90% Improvement, subjects [6]: 1 (20.0%)
- PASI 100% Improvement, subjects [7]: 2 (40.0%)
- PASI ≥75% Improvement, subjects [7]: 3 (60.0%)
- PASI ≥90% Improvement, subjects [7]: 3 (60.0%)
- PASI 100% Improvement, subjects [8]: 2 (40.0%)
- PASI ≥75% Improvement, subjects [8]: 3 (60.0%)
- PASI ≥90% Improvement, subjects [8]: 2 (40.0%)
- PASI 100% Improvement, subjects [9]: 1 (20.0%)
- PASI ≥75% Improvement, subjects [9]: 3 (60.0%)
- PASI ≥90% Improvement, subjects [9]: 3 (60.0%)
- Subjects achieving PASI 75 (100 mg BID): 23.8%
- Subjects achieving PASI 100 (100 mg BID, Week 8): 11.9%
- PASI 75 treatment difference vs placebo (100 mg BID, Week 16): 69.4%
- PASI 90 treatment difference vs placebo (100 mg BID, Week 16): 57.3% (42.0%,
- PASI 100 treatment difference vs placebo (100 mg BID, Week 16): 40.5% (25.8%,
- Subjects achieving PASI 90 (100 mg BID, Week 16): (59.5%)
- PASI 75, % (100 mg BID, Week 16, N=42): 78.6%
- PASI 90, % (100 mg BID, Week 16, N=42): 59.5%
- PASI 100, % (100 mg BID, Week 16, N=42): 40.5%
- PASI 100% Improvement, % subjects [10]: (50.0%)
- PASI 100% Improvement, n subjects [10]: 1
- PASI ≥75% Improvement, n subjects [10]: 2
- PASI ≥90% Improvement, % subjects [10]: (100.0%)
- PASI ≥90% Improvement, n subjects [10]: 2
- PASI 100% Improvement, % subjects [11]: (33.3%)
- PASI 100% Improvement, n subjects [11]: 1
- PASI ≥75% Improvement, n subjects [11]: 3
- PASI ≥90% Improvement, % subjects [11]: (100.0%)
- PASI ≥90% Improvement, n subjects [11]: 3
- PASI 100% Improvement, % subjects [12]: (50.0%)
- PASI 100% Improvement, n subjects [12]: 1
- PASI ≥75% Improvement, n subjects [12]: 1
- PASI ≥90% Improvement, % subjects [12]: (50.0%)
- PASI ≥90% Improvement, n subjects [12]: 1
- PASI 100% Improvement, % subjects [13]: (66.7%)
- PASI 100% Improvement, n subjects [13]: 2
- PASI ≥75% Improvement, n subjects [13]: 3
- PASI ≥90% Improvement, % subjects [13]: (66.7%)
- PASI ≥90% Improvement, n subjects [13]: 2
- PASI 100% Improvement, subjects [14]: 1 (25.0%)
- PASI ≥75% Improvement, subjects [14]: 3 (75.0%)
- PASI ≥90% Improvement, subjects [14]: 50.0%
